Laboratory results: the Deep4Chem optical property database
Where “and” joins values, the source holds several entries; their conditions need not be identical. Equal entries are not always repeated. One block for each compound: values may come before it.

Experiment: photoluminescence quantum yield (fraction); solvent given as SMILES
[1] = in O=P(c1ccccc1)(c1ccccc1)c1ccccc1Oc1ccccc1P(=O)(c1ccccc1)c1ccccc1

SMILES: O=C1/C(=C/C=C/c2cc3c4c(c2)CCCN4CCC3)CC/C1=C\C=C\c1cc2c3c(c1)CCCN3CCC2
photoluminescence quantum yield (in CC#N): 0.037
photoluminescence quantum yield (in CC(C)=O): 0.092
photoluminescence quantum yield (in CC(C)O): 0.07
photoluminescence quantum yield (in CCCCCC): 0.13
photoluminescence quantum yield (in CCCCO): 0.061
photoluminescence quantum yield (in CCCO): 0.042
photoluminescence quantum yield (in CCO): 0.026
photoluminescence quantum yield (in CCOC(C)=O): 0.1
photoluminescence quantum yield (in CCOCC): 0.26
photoluminescence quantum yield (in CN(C)C=O): 0.053
photoluminescence quantum yield (in CO): 0.026
photoluminescence quantum yield (in CS(C)=O): 0.062
photoluminescence quantum yield (in Cc1ccccc1): 0.3
photoluminescence quantum yield (in ClCCl): 0.15
photoluminescence quantum yield (in OCC(F)(F)F): 0.008
photoluminescence quantum yield (in S=C=S): 0.078
photoluminescence quantum yield (in c1ccccc1): 0.3
photoluminescence quantum yield (in c1ccncc1): 0.17

SMILES: Cc1ccccc1[B-]1(c2ccccc2C)n2nc(C(F)(F)F)cc2-c2c3ccccc3cc[n+]21
photoluminescence quantum yield (in C1CCCCC1): 0.0285
photoluminescence quantum yield (in Cc1ccccc1): 0.0259
photoluminescence quantum yield (in ClCCl): 0.0197

SMILES: CCOC(=O)c1ccc(NC(=O)COc2cc3c4c([nH]c3c(C)c2C)C(=O)CCC4)cc1
photoluminescence quantum yield (in C1COCCO1): 0.031
photoluminescence quantum yield (in CC#N): 0.131
photoluminescence quantum yield (in CCO): 0.097
photoluminescence quantum yield (in CS(C)=O): 0.123
photoluminescence quantum yield (in O): 0.037
photoluminescence quantum yield (in c1ccccc1): 0.075

SMILES: CCOC(=O)C1=CN(c2ccccc2)C=C(C(=O)OCC)C1c1ccccc1
photoluminescence quantum yield (in C1CCOC1): 0.51
photoluminescence quantum yield (in CO): 0.44

SMILES: c1ccc([B-]2(c3ccccc3)Oc3ccc4ccccc4c3-c3c4ccccc4cc[n+]32)cc1
photoluminescence quantum yield (in Cc1ccccc1): 0.32

SMILES: Cc1cc2nc3c(=O)n(C)c(=O)nc-3n(C)c2cc1C
photoluminescence quantum yield (in CC#N): 0.17 and 0.47

SMILES: COc1ccc(OC)c(C(C)=O)c1
photoluminescence quantum yield (in CO): 0.1

SMILES: CCCCn1c2ccc(C#N)cc2c2cc(C#N)ccc21
photoluminescence quantum yield (in ClCCl): 0.1

SMILES: c1ccc(-c2nc(-c3ccccc3)nc(-c3ccc(-n4c5ccccc5c5cc6c(cc54)C4(c5ccccc5-c5ccccc54)c4ccccc4-6)cc3)n2)cc1
photoluminescence quantum yield [1]: 0.856

SMILES: N#CC(C#N)=Cc1ccc2c(c1)c1ccccc1n2-c1cc2ccccc2c2ccccc12
photoluminescence quantum yield (in CC#N): 0.09
photoluminescence quantum yield (in CCCCC): 0.16
photoluminescence quantum yield (in Cc1ccccc1): 0.16
photoluminescence quantum yield (in ClCCl): 0.04

SMILES: N#CC1=CC=CC(C#N)=P1(c1ccccc1)c1ccccc1
photoluminescence quantum yield (in ClC(Cl)Cl): 0.92

SMILES: CCC1(CC)c2cc(N(C)C)ccc2-c2ccc(C(F)(F)F)cc21
photoluminescence quantum yield (in C1CCCCC1): 0.67
photoluminescence quantum yield (in CC#N): 0.04
photoluminescence quantum yield (in CCO): 0.58
photoluminescence quantum yield (in CCOCC): 0.63
photoluminescence quantum yield (in CS(C)=O): 0.53
photoluminescence quantum yield (in ClCCl): 0.44
photoluminescence quantum yield (in c1ccccc1): 0.59

SMILES: CCC1(CC)c2cc(C#Cc3cccs3)ccc2-c2c1c1c(c3c2C(CC)(CC)c2cc(C#Cc4cccs4)ccc2-3)C(CC)(CC)c2cc(C#Cc3cccs3)ccc2-1
photoluminescence quantum yield (in C1CCOC1): 0.58

SMILES: c1ccc(-c2cnc3nn4ccccc4c3n2)cc1
photoluminescence quantum yield (in C1CCOC1): 0.96

SMILES: CC1=CC(C)=[N+]2C1=Cc1cccn1[B-]2(F)F
photoluminescence quantum yield (in CCCCCC): 0.93
photoluminescence quantum yield (in CO): 0.99
photoluminescence quantum yield (in ClCCl): 0.87

SMILES: COC(=O)c1ccc(/C=C2\C=C(c3ccc(OC)c(OC)c3)NC2=O)cc1
photoluminescence quantum yield (in C1COCCO1): 0.363

SMILES: CCCCCCOc1cc(N(CC)CC)ccc1/C=C/C(=C(C#N)C#N)c1ccc2c(c1)c1ccccc1n2CC
photoluminescence quantum yield (in ClCCl): 0.121

SMILES: COc1cn2cc(-c3ccc(C#N)cc3)[n-][n+]2c1
photoluminescence quantum yield (in ClCCl): 0.57

SMILES: CCCCN(CCCC)c1ccc(C#Cc2cc(C#Cc3ccc(N(CCCC)CCCC)cc3)c(C#Cc3ccc(C#N)cc3)cc2C#Cc2ccc(C#N)cc2)cc1
photoluminescence quantum yield (in ClCCl): 0.35

SMILES: C#Cc1ccc(-c2c3nc(c(-c4ccc(C#C)cc4)c4ccc([nH]4)c(-c4cc(C(C)(C)C)cc(C(C)(C)C)c4)c4cc(c(-c5cc(C(C)(C)C)cc(C(C)(C)C)c5)c5ccc2[nH]5)C=N4)C=C3)cc1
photoluminescence quantum yield (in ClCCl): 0.0269

SMILES: CCOC(=O)c1sc(-c2ccc(-c3cc(C4CC4)c(C(=O)OCC)s3)s2)cc1C1CC1
photoluminescence quantum yield (in ClCCl): 0.21

SMILES: COc1ccc(N(c2ccc(C=C(c3ccccc3)c3ccccc3)cc2)c2ccc(C=C(c3ccccc3)c3ccccc3)cc2)cc1
photoluminescence quantum yield (in Cc1ccccc1): 0.06

SMILES: CCOC(=O)c1ccccc1-c1c2ccc(=[N+](CC)CC)cc-2oc2c1c(=O)oc1cc3c(cc12)CCCN3C
photoluminescence quantum yield (in CCO): 0.04
photoluminescence quantum yield (in ClC(Cl)Cl): 0.33

SMILES: O=C(O)c1ccccc1Nc1cccc(C(F)(F)F)c1
photoluminescence quantum yield (in C1CCCCC1): 0.016
photoluminescence quantum yield (in C1CCOC1): 0.016
photoluminescence quantum yield (in C1COCCO1): 0.026
photoluminescence quantum yield (in CC#N): 0.004
photoluminescence quantum yield (in CCOC(C)=O): 0.014
photoluminescence quantum yield (in CN(C)C=O): 0.006
photoluminescence quantum yield (in CO): 0.001
photoluminescence quantum yield (in ClC(Cl)Cl): 0.022

SMILES: CCCC1=Cc2nc1ccc1[nH]c(cc1CCC)c1nc(c(O)cc3[nH]c2cc3CCC)C(CCC)=C1
photoluminescence quantum yield (in Cc1ccccc1): 0.15

SMILES: ClP1(Cl)=NP(Cl)(Cl)=NP(Cl)(Oc2ccc3ccc4cccc5ccc2c3c45)=N1 (configuration not stated)
photoluminescence quantum yield (in ClCCl): 0.55

SMILES: COc1cc(C)c(-c2cc(-c3c(C)cc(OC)cc3C)c3ccc4c(-c5c(C)cc(OC)cc5C)cc(-c5c(C)cc(OC)cc5C)c5ccc2c3c54)c(C)c1
photoluminescence quantum yield (in ClCCl): 0.38

SMILES: CCCCCCCCCCCCn1cccc1/C=C/c1ccc(/C=C/c2cccn2CCCCCCCCCCCC)cc1
photoluminescence quantum yield (in Cc1ccccc1): 0.32

SMILES: CC(C)(C)c1ccc2c(c1)c1cc(C(C)(C)C)ccc1n2-c1cccc(-c2nc(-c3cccc(P(=O)(c4ccccc4)c4ccccc4)c3)nc(-c3cccc(P(=O)(c4ccccc4)c4ccccc4)c3)n2)c1
photoluminescence quantum yield [1]: 0.72

SMILES: CN(C)c1ccc2c(-c3cc(C(=O)[O-])ccc3C(=O)[O-])c3ccc(=[N+](C)C)cc-3oc2c1
photoluminescence quantum yield (in CCO): 0.59
photoluminescence quantum yield (in O): 0.45

SMILES: Cc1cc(C)c(N(c2ccccc2)c2ccc(S(=O)(=O)c3ccc(S(=O)(=O)c4ccc(N(c5ccccc5)c5c(C)cc(C)cc5C)cc4)cc3)cc2)c(C)c1
photoluminescence quantum yield (in Cc1ccccc1): 0.79

SMILES: CN(C)c1ccc(C#Cc2cc3ccccc3oc2=O)cc1
photoluminescence quantum yield (in ClCCl): 0.009

SMILES: CC(C)[Si](C#Cc1c2ccc(C(C)(C)C)cc2c(C#C[Si](C(C)C)(C(C)C)C(C)C)c2ccc(C(C)(C)C)cc12)(C(C)C)C(C)C
photoluminescence quantum yield (in Cc1ccccc1): 0.92

SMILES: CC(C)(C)c1cc(-c2c3cc(c(-c4cc(C(C)(C)C)cc(C(C)(C)C)c4)c4ccc([nH]4)c(-c4ccc(Br)cc4)c4nc(c(-c5ccc(Br)cc5)c5ccc2[nH]5)C=C4)N=C3)cc(C(C)(C)C)c1
photoluminescence quantum yield (in ClCCl): 0.0127

SMILES: COc1ccc(CCNC(=O)c2sc(-c3ccc(-c4cc(-c5ccc(C(C)(C)C)cc5)c(C(=O)NCCc5ccc(OC)c(OC)c5)s4)s3)cc2-c2ccc(C(C)(C)C)cc2)cc1OC
photoluminescence quantum yield (in ClCCl): 0.27

SMILES: N#Cc1c(-n2c3ccccc3c3cc(Br)ccc32)c(-n2c3ccccc3c3cc(Br)ccc32)c(C#N)c(-n2c3ccccc3c3cc(Br)ccc32)c1-n1c2ccccc2c2cc(Br)ccc21
photoluminescence quantum yield (in Cc1ccccc1): 0.53

SMILES: c1ccc(-c2nnc(-c3cc(-c4nnc(-c5ccccc5)o4)c(-n4c5ccccc5c5ccccc54)cc3-n3c4ccccc4c4ccccc43)o2)cc1
photoluminescence quantum yield (in Cc1ccccc1): 0.101
photoluminescence quantum yield [1]: 0.581

SMILES: C(=C\c1nc2ccccc2[nH]1)/c1ccc(/C=C/c2nc3ccccc3[nH]2)cc1
photoluminescence quantum yield (in C1CCOC1): 0.855
photoluminescence quantum yield (in CC#N): 0.679
photoluminescence quantum yield (in CC(C)=O): 0.609
photoluminescence quantum yield (in CN(C)C=O): 0.775
photoluminescence quantum yield (in CO): 0.738
photoluminescence quantum yield (in CS(C)=O): 0.63

SMILES: CCOC(=O)C1=C(N)n2c(=O)c3ccccc3c(=O)n2C1c1cccs1 (configuration not stated)
photoluminescence quantum yield (in CS(C)=O): 0.075

SMILES: CCOC(=O)c1cc(C(=O)OCC)c2cccc(OCc3ccccc3)c2n1
photoluminescence quantum yield (in CCO): 0.2

SMILES: COc1ccc(-c2nc(-c3ccc(C(=O)O)cc3)[nH]c2-c2ccc(OC)cc2)cc1
photoluminescence quantum yield (in CO): 0.42

Results, then the compound that gave them:

photoluminescence quantum yield (in C1CCOC1): 0.01
SMILES: O=C1c2cc(-c3ccccc3)ccc2-c2ccc(-c3ccccc3)cc21

photoluminescence quantum yield (in C1CCOC1): 0.486
SMILES: CCCCCOc1cc2oc(=O)c3c4ccc(N)cc4c4ccc5cccc6c(c1)c2c3c4c56

photoluminescence quantum yield (in CCCCCC): 0.57
photoluminescence quantum yield (in ClCCl): 0.76
SMILES: CC(C)[Si](C#Cc1c2ccccc2c(C#C[Si](C(C)C)(C(C)C)C(C)C)c2nc3cc4c(cc3nc12)C1c2ccccc2C4c2ccccc21)(C(C)C)C(C)C

photoluminescence quantum yield (in c1cc(-c2cccc(-n3c4ccccc4c4ccccc43)c2)cc(-n2c3ccccc3c3ccccc32)c1): 0.42
SMILES: CC1(C)c2ccccc2N(c2ccc3c(c2)c2ccccc2c2nc4ccccc4nc32)c2ccccc21

photoluminescence quantum yield (in ClCCl): 0.72
SMILES: CN(C)c1ccc(/C=C/c2cc(/C=C/c3ccc(N(C)C)cc3)nc(/C=C/c3ccc(C(F)(F)F)cc3)n2)cc1

photoluminescence quantum yield (in C1CCCCC1): 0.36
SMILES: CCCC1(CCC)c2ccccc2-c2ccccc21

photoluminescence quantum yield (in C1CCOC1): 0.046
SMILES: N#Cc1ccc(C=C(c2ccccc2)c2ccccc2)cc1

photoluminescence quantum yield (in ClCCl): 0.7
SMILES: CN(C)c1cc(-c2ccc(C#Cc3ccccc3)cc2)cc2ccccc12

photoluminescence quantum yield (in ClCCl): 0
SMILES: O=[N+]([O-])c1ccc(-c2nc(/C=C/c3ccccc3)c(/C=C/c3ccccc3)[nH]2)cc1

photoluminescence quantum yield (in ClCCl): 0.202
SMILES: CC[B-]1(CC)c2cccc3cc4ccccc4c(c23)-c2cccc(C)[n+]21

photoluminescence quantum yield (in ClCCl): 0.14
SMILES: F[B-]1(F)n2c(-c3ccccc3)c3ccc4ccccc4c3c2N=C2c3c(ccc4ccccc34)C(c3ccccc3)=[N+]21

photoluminescence quantum yield (in ClCCl): 0.81
SMILES: CCN(CC)c1ccc2c(c1)OC1=[N+](c3ccc(I)cc3)[B-](F)(F)n3c(nc4ccccc43)C1=C2

photoluminescence quantum yield (in ClCCl): 0.72
SMILES: CN(C)c1cc(-c2ccccc2)cc2cc(C#Cc3ccncc3)ccc12

photoluminescence quantum yield (in CN(C)C=O): 0.84
SMILES: O=C1c2ccc3c4ccc5c6c(ccc(c7ccc(c2c37)C(=O)N1c1ccc(Cl)cc1)c64)C(=O)N(c1ccc(Cl)cc1)C5=O

photoluminescence quantum yield (in C1CCCCC1): 0.7
SMILES: Cc1cc(C)c(B2c3cc(C(C)(C)C)cc4c5ccccc5c5c6ccccc6c6cc(C(C)(C)C)cc2c6c5c34)c(C)c1

photoluminescence quantum yield (in CC#N): 0.37
SMILES: CCOC(=O)c1c2c3c(cccc3c3cc4ccccc4cc13)N(C)C2=O

photoluminescence quantum yield (in ClC(Cl)Cl): 0.08
SMILES: C[Si](C)(C)C#Cc1c2c(=O)c3ccccc3c2c(C#C[Si](C)(C)C)c2c(=O)c3ccccc3c12

photoluminescence quantum yield (in C1CCCCC1): 0.97
SMILES: c1ccc(-c2c3ccccc3c(-c3ccccc3)c3ccccc23)cc1

photoluminescence quantum yield (in ClCCl): 0.33
SMILES: O=c1c2cc(C#Cc3ccc(Cl)cc3)ccc2nc2ccc(C#Cc3ccc(Cl)cc3)cn12
